Test results published in ChEMBL document CHEMBL1201862, “PubChem BioAssay data set” (2004).
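All cell lines were grown in 96-well plates and treated with compound for 48 hours. GI50 = concentration required for 50% inhibition of growth.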 The source made the active and inactive calls. Rule as the data show it: active = GI50 up to about 1.1 µM and inactive = higher.

Legend:
Test in all cases: inhibition of tumour cell growth, NCI panel, 48 h
[1] = system: TK-10
[2] = system: SK-MEL-5
[3] = system: HOP-18
[4] = system: SF-539
[5] = system: M14
[6] = system: SNB-75
[7] = system: SNB-78
[8] = system: UO-31
[9] = system: NCI/ADR-RES
[10] = system: DU-145
[11] = system: HL-60
[12] = system: NCI-H522
[13] = system: SR
[14] = system: SF-295
[15] = system: A498
[16] = system: HT-29
[17] = system: DMS-273
[18] = system: OVCAR-8
[19] = system: SK-MEL-2
[20] = system: KM12
[21] = system: LXFL 529
[22] = system: UACC-257
[23] = system: HOP-92
[24] = system: K562
[25] = system: XF498
[26] = system: T47D
[27] = system: OVCAR-3
[28] = system: A549
[29] = system: EKVX
[30] = system: HCT-15
[31] = system: CAKI-1
[32] = system: KM-20L2
[33] = system: ACHN
[34] = system: MDA-N
[35] = system: SF-268
[36] = system: MDA-MB-435
[37] = system: SK-MEL-28
[38] = system: NCI-H23
[39] = system: RPMI-8226
[40] = system: LOX IMVI
[41] = system: NCI-H460
[42] = system: OVCAR-4
[43] = system: NCI-H226
[44] = system: Hs-578T
[45] = system: RXF 393
[46] = system: COLO 205
[47] = system: SW-620
[48] = system: SK-OV-3
[49] = system: MCF7
[50] = system: DLD-1
[51] = system: MDA-MB-231
[52] = system: SN12C
[53] = system: OVCAR-5
[54] = system: CCRF-CEM
[55] = system: SNB-19
[56] = system: IGROV-1
[57] = system: PC-3
[58] = system: HCC 2998
[59] = system: MOLT-4
[60] = system: 786-0
[61] = system: UACC-62
[62] = system: HCT-116
[63] = system: Malme-3M
[64] = system: U-251

How did the GI50 [1] turn out when `O=C1C=C2S[C@H]3C[C@]2(C=C1Br)C1=C(N3)C(=O)c2[nH]cc3c2C1=NCC3` [(+)-DISCORHABDIN B] was run?
Its GI50 is 1400 nM (inactive).

And the GI50 [2]?
The GI50 was 1040 nM (active).

What about the GI50 [3] of the same compound?
Its GI50 is 1780 nM (inactive).

And the GI50 [4]?
The GI50 was 1630 nM (inactive).

And the GI50 [5]?
The GI50 was 726 nM (active).

What about the GI50 [6] of the same compound?
Its GI50 is 1550 nM (inactive).

What about the GI50 [7] of the same compound?
Its GI50 is 1780 nM (inactive).

What about the GI50 [8] of the same compound?
Its GI50 is 1570 nM (inactive).

What about the GI50 [9] of the same compound?
The GI50 was 205 nM (active).

What about the GI50 [10] of the same compound?
The GI50 was 1920 nM (inactive).

And the GI50 [11]?
Its GI50 is 85.3 nM (active).

And the GI50 [12]?
Its GI50 is 273 nM (active).

And the GI50 [13]?
The GI50 was 2690 nM (inactive).

What about the GI50 [14] of the same compound?
Its GI50 is 1500 nM (inactive).

What about the GI50 [15] of the same compound?
The GI50 was 5650 nM (inactive).

And the GI50 [16]?
The GI50 was 344 nM (active).

And the GI50 [17]?
Its GI50 is 1170 nM (inactive).

And the GI50 [18]?
The GI50 was 541 nM (active).

And the GI50 [19]?
Its GI50 is 469 nM (active).

And the GI50 [20]?
The GI50 was 1600 nM (inactive).

And the GI50 [21]?
The GI50 was 190 nM (active).

What about the GI50 [22] of the same compound?
The GI50 was 213 nM (active).

And the GI50 [23]?
Its GI50 is 973 nM (active).

What about the GI50 [24] of the same compound?
Its GI50 is 209 nM (active).

And the GI50 [25]?
Its GI50 is 1420 nM (inactive).

And the GI50 [26]?
The GI50 was 283 nM (active).

What about the GI50 [27] of the same compound?
Its GI50 is 347 nM (active).

And the GI50 [28]?
The GI50 was 2470 nM (inactive).

What about the GI50 [29] of the same compound?
Its GI50 is 1680 nM (inactive).

What about the GI50 [30] of the same compound?
The GI50 was 745 nM.

And the GI50 [31]?
Its GI50 is 1690 nM (inactive).

What about the GI50 [32] of the same compound?
The GI50 was 463 nM (active).

What about the GI50 [33] of the same compound?
Its GI50 is 632 nM (active).

What about the GI50 [34] of the same compound?
The GI50 was 165 nM (active).

What about the GI50 [35] of the same compound?
The GI50 was 1540 nM (inactive).

What about the GI50 [36] of the same compound?
Its GI50 is 158 nM (active).

What about the GI50 [37] of the same compound?
Its GI50 is 1400 nM (inactive).

What about the GI50 [38] of the same compound?
Its GI50 is 1220 nM (inactive).

And the GI50 [39]?
Its GI50 is 305 nM (active).

And the GI50 [40]?
Its GI50 is 347 nM (active).

What about the GI50 [41] of the same compound?
The GI50 was 3050 nM (inactive).

And the GI50 [42]?
The GI50 was 218 nM (active).

What about the GI50 [43] of the same compound?
The GI50 was 2240 nM (inactive).

And the GI50 [44]?
Its GI50 is 1500 nM (inactive).

What about the GI50 [45] of the same compound?
The GI50 was 272 nM (active).

What about the GI50 [46] of the same compound?
Its GI50 is 72.1 nM (active).

What about the GI50 [47] of the same compound?
The GI50 was 85.7 nM (active).

What about the GI50 [48] of the same compound?
Its GI50 is 5620 nM (inactive).

What about the GI50 [49] of the same compound?
The GI50 was 520 nM (active).

What about the GI50 [50] of the same compound?
The GI50 was 617 nM (active).

And the GI50 [51]?
Its GI50 is 305 nM (active).

What about the GI50 [52] of the same compound?
The GI50 was 1230 nM (inactive).

And the GI50 [53]?
Its GI50 is 1850 nM (inactive).

And the GI50 [54]?
The GI50 was 234 nM (active).

And the GI50 [55]?
Its GI50 is 12400 nM (inactive).

What about the GI50 [56] of the same compound?
The GI50 was 1530 nM (inactive).

What about the GI50 [57] of the same compound?
The GI50 was 1830 nM (inactive).

And the GI50 [58]?
Its GI50 is 2300 nM (inactive).

And the GI50 [59]?
Its GI50 is 148 nM (active).

And the GI50 [60]?
The GI50 was 883 nM (active).

And the GI50 [61]?
The GI50 was 555 nM (active).

And the GI50 [62]?
The GI50 was 103 nM (active).

And the GI50 [63]?
Its GI50 is 115 nM (active).

And the GI50 [64]?
The GI50 was 1750 nM (inactive).
